The text below walks through data of the C3SDB collision cross section collection.

Structures can show the parent of a compound that is named as a salt.

The conditions of one series: [M+H-H2O]+; instrument: TW; calibrated with polyalanine and drug standards.
As to `C=C1C(=O)O[C@@H]2[C@H]3O[C@]3(C)CC/C=C(\C)CC[C@@H]12` [PARTHENOLIDE], the “collision cross section (N2)” value is 150.7 Å². As for `COc1cc([C@@H]2c3cc4c(cc3[C@H](O)[C@H]3COC(=O)[C@@H]23)OCO4)cc(OC)c1OC` [PICROPODOPHYLLIN], the “collision cross section (N2)” value is reported as 190.9 Å². On the same count and under the same terms, next, `COc1cc([C@@H]2c3cc4c(cc3[C@H](O)[C@H]3COC(=O)[C@H]23)OCO4)cc(OC)c1OC` [PODOFILOX]: 190.1 Å²; `CCC(C)(C)C(=O)O[C@H]1C[C@@H](C)C=C2C=C[C@H](C)[C@H](CC[C@@H]3C[C@@H](O)CC(=O)O3)[C@H]21` [SIMVASTATIN]: 199.6 Å²; `CC1=CC(=O)[C@H]2C(C)(C)CCC[C@]2(C)[C@@]1(O)CCc1ccoc1` [SOLIDAGENONE]: 170.6 Å².

The series is the same for the next values; noted with them: [M+H]+; instrument: TW; calibrated with polyalanine and drug standards.
For `O=C(O)CN(CCN(CC(=O)O)CC(=O)O)CCN(CC(=O)O)CC(=O)O` [PENTETIC ACID], the “collision cross section (N2)” value is listed as 180.2 Å².

For the molecule `CC(=O)CCCCn1c(=O)c2c(ncn2C)n(C)c1=O` [PENTOXIFYLLINE], the “collision cross section (N2)” value was 158.5 Å². `C=C(C)[C@H]1CC=C(C(=O)O)CC1` [PERILLIC ACID (-)]: the “collision cross section (N2)” value is on record as 124.9 Å². On the same count and under the same terms, as for `OCCN1CCN(CCCN2c3ccccc3Sc3ccc(Cl)cc32)CC1` [PERPHENAZINE], the figure is 192 Å². Turning to `CC(C)=CCc1c(O)cc2oc(C)cc(=O)c2c1O` [PEUCENIN], the “collision cross section (N2)” value is listed as 154.2 Å².

`CC(=O)c1c(O)cc(O)cc1O` [PHLORACETOPHENONE]: the “collision cross section (N2)” value was determined as 129 Å².

As to `O=c1[nH]c2ccccc2n1C1CCN(CCCC(c2ccc(F)cc2)c2ccc(F)cc2)CC1` [PIMOZIDE], the “collision cross section (N2)” value is listed as 212.6 Å². Still for that read-out and setting: as for `CCn1cc(C(=O)O)c(=O)c2cnc(N3CCNCC3)nc21` [PIPEMIDIC ACID], the figure is 171 Å².

For the molecule `Cc1nc2ccccn2c(=O)c1CCN1CCC(C(=O)c2ccc(F)cc2)CC1` [PIRENPERONE], the “collision cross section (N2)” value was 196.8 Å². `CC1=CC(=O)c2c(O)cccc2C1=O` [PLUMBAGIN]: the “collision cross section (N2)” value stood at 124.1 Å².

As to `COc1cc([C@@H]2c3cc4c(cc3[C@H](O)[C@H]3COC(=O)[C@H]23)OCO4)cc(OC)c1OC` [PODOFILOX], the “collision cross section (N2)” value is given as 189.6 Å². Still for that read-out and setting: next, `O=C(C1CCCCC1)N1CC(=O)N2CCc3ccccc3C2C1` (configuration not stated) [PRAZIQUANTEL]: 176.5 Å²; `C[C@]12C=CC(=O)C=C1CC[C@@H]1[C@@H]2[C@@H](O)C[C@@]2(C)[C@H]1CC[C@]2(O)C(=O)COC(=O)CCC(=O)O` [PREDNISOLONE HEMISUCCINATE]: 210.3 Å². On the same count and under the same terms, as for `COC(=O)[C@]1(C)CC[C@]2(C)CC[C@]3(C)C4=CC=C5C(=CC(=O)C(O)=C5C)[C@]4(C)CC[C@@]3(C)[C@@H]2C1` [PRISTIMERIN], the figure is 211.2 Å²; as for `CCCN(CCC)S(=O)(=O)c1ccc(C(=O)O)cc1` [PROBENECID], 161.4 Å². As for `CCN(CC)CCOC(=O)c1ccc(N)cc1` [PROCAINE], the “collision cross section (N2)” value was 154.7 Å². On to `CNCCCC1c2ccccc2C=Cc2ccccc21` [PROTRYPTYLINE HYDROCHLORIDE], for which the “collision cross section (N2)” value came to 162.8 Å². Turning to `CC(O)Cn1cnc2c1c(=O)n(C)c(=O)n2C` (configuration not stated) [PROXYPHYLLINE], the “collision cross section (N2)” value stood at 149.1 Å². Same read-out and setting: next, `O=c1c(-c2ccc(O)cc2)coc2c([C@@H]3O[C@H](CO)[C@@H](O)[C@H](O)[C@H]3O)c(O)ccc12` [PUERARIN]: 196.4 Å²; `OCCOCCN1CCN(C2=Nc3ccccc3Sc3ccccc32)CC1` [QUETIAPINE]: 191.5 Å²; `COC(=O)[C@H](Cc1ccccc1)NC(=O)/C(=C1\OC(=O)C(c2ccccc2)=C1O)c1ccccc1` [RHIZOCARPIC ACID]: 212.8 Å². The same measure, in the same setting: as for `CO[C@H]1/C=C/O[C@@]2(C)Oc3c(C)c(O)c4c(c3C2=O)C(=O)/C(=C/NN2CCN(C)CC2)C(=C4O)NC(=O)/C(C)=C\C=C\[C@H](C)[C@H](O)[C@@H](C)[C@@H](O)[C@@H](C)[C@H](OC(C)=O)[C@@H]1C` [RIFAMPIN], the figure is 280.3 Å²; as for `COc1ccc(-c2c(O)c3c(OC)c4c(cc3oc2=O)OC(C)(C)C=C4)cc1` [ROBUSTIC ACID], 190.3 Å²; as for `CC[C@H]1OC(=O)[C@H](C)[C@@H](O[C@H]2C[C@@](C)(OC)[C@@H](O)[C@H](C)O2)[C@H](C)[C@@H](O[C@@H]2O[C@H](C)C[C@H](N(C)C)[C@H]2O)[C@](C)(O)C[C@@H](C)/C(=N\OCOCCOC)[C@H](C)[C@@H](O)[C@]1(C)O` [ROXITHROMYCIN], 276.1 Å². For the molecule `C[C@@H]1O[C@@H](OC[C@H]2OC(Oc3c(-c4ccc(O)c(O)c4)oc4cc(O)cc(O)c4c3=O)[C@H](O)[C@@H](O)[C@@H]2O)[C@H](O)[C@H](O)[C@H]1O` (some centres not stated) [RUTOSIDE  (rutin)], the “collision cross section (N2)” value was 230.7 Å². With `COc1ccc2c(c1O)-c1c(OC)c(OC)cc3c1[C@H](C2)N(C)CC3` [S-ISOCORYDINE (+)], the “collision cross section (N2)” value is reported as 181.9 Å².

Take `C=CCc1ccc2c(c1)OCO2` [SAFROLE]: the “collision cross section (N2)” value is listed as 138.6 Å². As to `O=C(Nc1ccccc1)c1ccccc1O` [SALICYLANILIDE], the “collision cross section (N2)” value is reported as 143.9 Å².

On to `CC1=C2[C@H]3OC(=O)[C@@H](C)[C@@H]3CC[C@@]2(C)C=CC1=O` [SANTONIN], for which the “collision cross section (N2)” value was found to be 154.9 Å².

As for `COc1ccc2c(c1)OC/C(=C\c1ccc(OC)c(O)c1)C2=O` [SAPPANONE A DIMETHYL ETHER], the “collision cross section (N2)” value is recorded as 170.3 Å². For `COc1cc2ccc(=O)oc2cc1O` [SCOPOLETIN], the “collision cross section (N2)” value is 133.6 Å². Turning to `CC(=O)O[C@H]1CC[C@@]2(C)[C@H](CC[C@@H]3[C@@H]2CC[C@]2(C)[C@@H]4[C@H](C[C@@H]32)O[C@]2(CC[C@@H](C)CO2)[C@H]4C)C1` [SMILAGENIN ACETATE], the “collision cross section (N2)” value was determined as 222.1 Å². On the same count and under the same terms, next, `COc1cc2ccc(=O)oc2c2ccoc12` [SPHONDIN]: 139.9 Å²; `O=C(CCCN1CCC2(CC1)C(=O)NCN2c1ccccc1)c1ccc(F)cc1` [SPIPERONE]: 193.8 Å². In the case of `CC[C@H](/C=C/[C@@H](C)[C@H]1CC[C@H]2[C@@H]3CCC4=CC(=O)CC[C@]4(C)[C@H]3CC[C@]12C)C(C)C` [STIGMASTA-4,22-DIEN-3-ONE], the “collision cross section (N2)” value was 218.5 Å². Consider `Nc1ccc(S(=O)(=O)NC(=O)c2ccccc2)cc1` [SULFABENZAMIDE], for which the “collision cross section (N2)” value came to 158.2 Å². Turning to `Nc1ccc(S(=O)(=O)Nc2ccc(Cl)nn2)cc1` [SULFACHLORPYRIDAZINE], the “collision cross section (N2)” value turned out to be 158.2 Å². In the case of `COc1cc(NS(=O)(=O)c2ccc(N)cc2)nc(OC)n1` [SULFADIMETHOXINE], the “collision cross section (N2)” value was determined as 167.7 Å².

Take `Cc1ccnc(NS(=O)(=O)c2ccc(N)cc2)n1` [SULFAMERAZINE]: the “collision cross section (N2)” value is 156.3 Å².

Consider `Cc1nnc(NS(=O)(=O)c2ccc(N)cc2)s1` [SULFAMETHIZOLE], for which the “collision cross section (N2)” value was 155.2 Å². Still for that read-out and setting: next, `Cc1cc(NS(=O)(=O)c2ccc(N)cc2)no1` [SULFAMETHOXAZOLE]: 151.4 Å². As for `COc1ccc(NS(=O)(=O)c2ccc(N)cc2)nn1` [SULFAMETHOXYPYRIDAZINE], the “collision cross section (N2)” value was determined as 159.4 Å².

For the molecule `COc1cc(NS(=O)(=O)c2ccc(N)cc2)ncn1` [SULFAMONOMETHOXINE], the “collision cross section (N2)” value came to 159.5 Å². `Nc1ccc(S(=O)(=O)Nc2ccccn2)cc1` [SULFAPYRIDINE]: the “collision cross section (N2)” value is listed as 151.6 Å². The same measure, in the same setting: as for `O=C(O)C1=C/C(=N/Nc2ccc(S(=O)(=O)Nc3ccccn3)cc2)C=CC1=O` [SULFASALAZINE], the figure is 200.4 Å²; as for `CC(=O)N(c1onc(C)c1C)S(=O)(=O)c1ccc(N)cc1` [SULFISOXAZOLE ACETYL], 161.2 Å²; as for `CC1=C(CC(=O)O)c2cc(F)ccc2/C1=C\c1ccc(S(C)=O)cc1` (configuration not stated) [SULINDAC], 191.6 Å².

Take `COc1cc(S(C)=O)ccc1-c1nc2ncccc2[nH]1` (configuration not stated) [SULMAZOLE]: the “collision cross section (N2)” value stood at 166.4 Å².

For `CC(C(=O)O)c1ccc(C(=O)c2cccs2)cc1` (configuration not stated) [SUPROFEN], the “collision cross section (N2)” value came to 157.2 Å². With `CCCCC1(COC(=O)CCC(=O)O)C(=O)N(c2ccccc2)N(c2ccccc2)C1=O` [SUXIBUZONE], the “collision cross section (N2)” value is 199.3 Å².

Consider `Cc1coc2c1C(=O)C(=O)c1c-2ccc2c1CCCC2(C)C` [TANSHINONE IIA], for which the “collision cross section (N2)” value is 164 Å². For `O=C(O)C(O)C(O)C(=O)O` (configuration not stated) [TARTARIC ACID], the “collision cross section (N2)” value is 124.4 Å². `CC[C@H]1OC(=O)[C@H](C)C(=O)[C@H](C)[C@@H](O[C@@H]2O[C@H](C)C[C@H](N(C)C)[C@H]2O)[C@](C)(OC)C[C@@H](C)C(=O)[C@H](C)[C@H]2N(CCCCn3cnc(-c4cccnc4)c3)C(=O)O[C@]12C` [TELITHROMYCIN]: the “collision cross section (N2)” value is reported as 269.7 Å². Turning to `CC(C)(C)c1ccc(C(O)CCCN2CCC(C(O)(c3ccccc3)c3ccccc3)CC2)cc1` (configuration not stated) [TERFENADINE], the “collision cross section (N2)” value was found to be 226.8 Å². As for `CCC(=O)O[C@H]1CC[C@H]2[C@@H]3CCC4=CC(=O)CC[C@]4(C)[C@H]3CC[C@]12C` [TESTOSTERONE PROPIONATE], the “collision cross section (N2)” value is on record as 188.2 Å². The same measure, in the same setting: as for `COc1ccc2cc1Oc1ccc(cc1)C[C@H]1c3cc(c(OC)cc3CCN1C)Oc1c(OC)c(OC)cc3c1[C@H](C2)N(C)CC3` [TETRANDRINE], the figure is 245.3 Å².

The same series, now with this note: [M+Na]+; instrument: TW; calibrated with polyalanine and drug standards.
Take `CC(=O)OCC(OC(C)=O)C(OC(C)=O)C(OC(C)=O)C(OC(C)=O)C(COC(C)=O)OC(C)=O` (configuration not stated) [PERSEITOL HEPTAACETATE]: the “collision cross section (N2)” value is 205.7 Å².
